Assay results published in ChEMBL document CHEMBL2424581, “Optimization of phage heptapeptide library-screening process for developing inhibitors of the isocitrate lyase homologue from Mycobacterium tuberculosis” (Med Chem Res, 2013).

How the values were obtained:
[1] = target: T1, Isocitrate lyase (Mycobacterium tuberculosis, UniProt P9WKK7); assay: Inhibition of Mycobacterium tuberculosis recombinant isocitrate lyase expressed in Escherichia coli BL21 (DE3) using isocitrate as substrate after 10 mins by spectrometric analysis
T1 sequence (P9WKK7 whole entry): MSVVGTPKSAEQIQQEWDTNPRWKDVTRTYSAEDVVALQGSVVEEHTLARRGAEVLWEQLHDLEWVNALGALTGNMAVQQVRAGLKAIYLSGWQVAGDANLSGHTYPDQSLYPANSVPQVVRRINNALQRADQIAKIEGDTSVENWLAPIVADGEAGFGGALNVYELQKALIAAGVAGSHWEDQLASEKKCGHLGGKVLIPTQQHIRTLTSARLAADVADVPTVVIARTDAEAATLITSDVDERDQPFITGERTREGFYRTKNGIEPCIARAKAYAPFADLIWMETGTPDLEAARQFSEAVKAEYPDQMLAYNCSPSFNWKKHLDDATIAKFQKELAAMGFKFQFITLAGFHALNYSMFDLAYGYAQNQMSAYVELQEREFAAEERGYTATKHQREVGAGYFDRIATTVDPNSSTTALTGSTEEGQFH

[2] = target: T2, Isocitrate lyase (Mycobacterium tuberculosis) (UniProt P9WKK7); assay: Inhibition of Mycobacterium tuberculosis recombinant isocitrate lyase expressed in Escherichia coli BL21 (DE3) using isocitrate as substrate at 1 mg/mL by spectrometric analysis relative to control
T2 sequence (whole entry): T1 sequence (P9WKK7 whole entry)

Molecule | IC50 [1] [µM] | inhibition [2] [%]
O=C(O)CC[N+](=O)[O-] | 50.7 | –
H-HISHLML-OH | 192 | 51
H-HYSSHMR-OH [listing 1 of 2 here] | 126 | –
H-HYSSHMR-OH [listing 2 of 2 here] | – | 72
H-LTLGPLL-OH | 208 | 55
H-LTQHLTA-OH | 214 | 56
H-LYALATM-OH | 204 | 52
H-NPPERSP-OH | 142 | 73
H-NSSSLAQ-OH | 190 | 62
H-QKASPGA-OH | 172 | 73
H-SARVTSR-OH [listing 1 of 2 here] | 166 | –
H-SARVTSR-OH [listing 2 of 2 here] | – | 65
H-TELSLPS-OH | 182 | 61
H-TMHLSPY-OH | 156 | 63
H-VTSLKAT-OH | 228 | 51
